{"source": "patent US20100021567A1", "about": "“Peganine Isolated from Anisotes Trisulcus L. as a Smoking Deterrent and Anorxigenic Agent” (priority 2006, published 2010)", "key": {"Albino mice": {"test_system": "Albino mice", "test": "Nicotine-induced convulsions and death in mice", "format": "in vivo", "protocol": "Albino mice were divided into different groups (N=5) and injected with different doses of nicotine dissolved in water. The animals were injected (i.p) with doses 0.8, 1.6, 3.2 and 6.4 mg/kg. The animals were continuously observed for 2 hours for appearance of any changes in behavior such as tremors, convulsions (clonic or tonic), abnormal movements changes in tail position and shapes, changes in locomotor activity and death.\nThen after 5 minutes nicotine LD25 was then administered and the animals were observed continuously for any changes in behavior, convulsions or death. The time of convulsions and death were recorded."}, "[1]": {"settings": "in vivo; cited from earlier work"}, "[2]": {"settings": "cited from earlier work"}, "Male Wistar rats": {"test_system": "Male Wistar rats", "test": "Nicotine and food consumption in rats", "format": "in vivo", "protocol": "Male Wistar rats (200 g body weight) were divided at random into various groups (N=6 animals per group). Each animal was placed in a stainless steel cage and provided with a known weight of normal rat chow food pellets and drinking bottle containing a known volume of aqueous 0.025% sodium carboxymethylcellulose containing either nicotine acid tartarate to provide a final concentration of 40 μg/ml (in case of control groups) or the same concentration of nicotine plus the indicated concentrations of the whole extract, one of its fractions or peganine. The latter were added in form of their emulsions in 0.25% aqueous sodium carboxymethylcellulose in volumes that provide a final concentration of 0.025% of sodium carboxymethylcellulose in the drinking fluid. The animals were allowed both food and the drinking liquid ad libitum. The room temperature where the animals were placed was maintained at 23±2° C. The light cycle was kept at 12 h light and 12 h dark. The relative humidity was maintained at 75±5%. Both food and drinking liquid consumptions were measured every 2 days and at the end of the treatment which continued for complete seven consecutive days.\nAll results were reported as their means±s. e. mean with N=number of experiments. Statistical significance between control and treated groups were performed using student's t-test."}, "[3]": {"test_system": "dopamine turnover in the mesolimbic system", "settings": "dose 5.6 mg/kg; nicotine 1 mg/kg; rats; cited from earlier work"}, "[4]": {"settings": "peganine 140 mg/100 ml (1.4 mg/ml) + nicotine 40 μg/ml, vs control"}, "[5]": {"settings": "peganine 140 mg/100 ml + nicotine 40 μg/ml in drinking water, 7 days"}}, "note": "“Also recorded” adds a separate entry of the source.", "data": [{"compound": "CN1CCCC1c1cccnc1", "note": "(stereo not drawn) [Nicotine]", "values": [{"measurement": "Actions", "setting": "Albino mice; Nicotine 1.6 mg/kg (i.p)", "result": "f) No death; also recorded: a) Increase in locomotor activity; also recorded: b) Raising of tail; also recorded: c) Tremors; also recorded: d) Shaking of the body; also recorded: e) Increase in respiratory rate"}, {"measurement": "Actions", "setting": "Albino mice; Nicotine 3.2 mg/kg (i.p)", "result": "a) Tremors; also recorded: b) Fanning of tail; also recorded: c) Convulsions (Clonic-type); also recorded: d) Tremors; also recorded: e) Salivation; also recorded: f) No death"}, {"measurement": "Actions", "setting": "Albino mice; Nicotine 6.4 mg/kg (i.p)", "result": "a) Circular movements; also recorded: b) Convulsions; also recorded: c) Death after 3 minutes"}]}, {"compound": "(−)-cytisine", "values": [{"measurement": "Blood brain barrier penetrability", "setting": "[1]", "result": "poor blood brain barrier penetrability"}]}, {"compound": "O[C@H]1CCN2Cc3ccccc3N=C12", "note": "[peganine, 1,2,3,9-tetrahydropyrolo[2,1-b]quinazolin-3-ol]", "values": [{"measurement": "Effect on isolated gut", "setting": "[2]; isolated gut", "result": "inhibit peristalsis of isolated gut"}, {"measurement": "Cardiac effect", "setting": "[2]; isolated heart", "result": "negative inotropic effect of peganine with reduced coronary flow"}, {"measurement": "% decrease in food consumed", "setting": "Male Wistar rats; [4]", "result": 77.8, "unit": "%"}, {"measurement": "% decrease in nicotine consumed", "setting": "Male Wistar rats; [4]", "result": 79, "unit": "%"}, {"measurement": "Liquid consumed daily per 200 g rat per day", "setting": "Male Wistar rats; [5]", "result": "5.5 ± 0.13", "unit": "mL"}, {"measurement": "Quantity of food consumed per 200 g rat per day", "setting": "Male Wistar rats; [5]", "result": "5.66 ± 0.3", "unit": "g"}, {"measurement": "Quantity of nicotine consumed per day", "setting": "Male Wistar rats; [5]", "result": 0.22, "unit": "mg"}]}, {"compound": "c1cnc2cc3c(cc2n1)[C@@H]1CNC[C@H]3C1", "note": "[vareniciline]", "values": [{"measurement": "Effect on nicotine-induced increase in dopamine turnover", "setting": "[3]", "result": "significantly blocked"}]}]}
